Source: publication PMC4635624, “In vitro and in vivo single-agent efficacy of checkpoint kinase inhibition in acute lymphoblastic leukemia” (Journal of Hematology & Oncology, 2015)

What was measured:
Assay type in all cases: cell-based, human
[1] = tested on: normal bone marrow mononuclear cells; assay: Viability of primary cultures of normal cells; conditions: 24 h of exposure at 100, 500, and 1000 nM
Protocol: The efficacy of PF-00477736 was confirmed in primary blast cells from 14 newly diagnosed cases including ten BCR-ABL1-positive (71 %) cases and four BCR-ABL1-negative ALL cases (29 %). Leukemic cells were incubated with increasing concentrations of drug (0.1, 0.5, and 1 μM) for 24 h.
Normal bone marrow progenitors were harvested from bone marrow aspirations performed in lymphoma patients undergoing initial staging procedures, which then resulted negative for lymphoma infiltration. Normal peripheral blood progenitors were harvested from healthy donors.
In order to assess the cell viability after treatment with PF-00477736 (Pfizer), ALL cell lines were seeded in 96-well plates at 50,000 cell/100 μl/well with increasing concentrations of drug (0.005–2 μM) for 24 and 48 h and incubated at 37 °C. Cell viability was assessed by adding WST-1 reagent (Roche Applied Science, Basel, Switzerland) to the culture medium at 1:10 dilution. Cells were incubated at 37 °C, and the optical density was measured by microplate ELISA reader at λ = 450 after 3 h. […] In ex-vivo primary leukemia cells, the effects on cell viability were assessed by counting viable and non-viable cell numbers by the trypan blue dye exclusion method. […] Cellular viability was calculated as a percentage of the viable cells compared to the untreated controls (DMSO 0.1 %).

NALM-6 (B-ALL) cells = assay: Cell viability assay (WST-1); conditions: NALM-6, 24 h exposure, TP53 wild-type
Protocol: (§1) B-/T-ALL cell lines were incubated with increasing concentrations of drug (5–1000 nM) for 24 and 48 h.
(§2) In order to assess the cell viability after treatment with PF-00477736 (Pfizer), ALL cell lines were seeded in 96-well plates at 50,000 cell/100 μl/well with increasing concentrations of drug (0.005–2 μM) for 24 and 48 h and incubated at 37 °C. Cell viability was assessed by adding WST-1 reagent (Roche Applied Science, Basel, Switzerland) to the culture medium at 1:10 dilution. Cells were incubated at 37 °C, and the optical density was measured by microplate ELISA reader at λ = 450 after 3 h. The amount of the formazan formed directly correlates to the number of metabolically active cells. All viability experiments were performed in triplicates and repeated in least two separated experiments. In ex-vivo primary leukemia cells, the effects on cell viability were assessed by counting viable and non-viable cell numbers by the trypan blue dye exclusion method. Cells were seeded in six-well plates at 500,000 cell/1 ml with increasing concentrations of drug (0.1, 0.5, and 1 μM) for 24 h and incubated at 37 °C. Cellular viability was calculated as a percentage of the viable cells compared to the untreated controls (DMSO 0.1 %).

RPMI-8402 (T-ALL) cells = assay: Cell viability assay (WST-1); conditions: RPMI-8402, 24 h exposure, p53 mutated
Protocol: as §1, §2

SMILES: Cn1cc(-c2[nH]c3cc(NC(=O)[C@H](N)C4CCCCC4)cc4c3c2C=NNC4=O)cn1 [PF-00477736]
- cell viability [1]: did not reduce viability
- IC50 (NALM-6 (B-ALL) cells): 1420 nM
- IC50 (RPMI-8402 (T-ALL) cells): 57.4 nM
